US20030181373A1, “Vascular relaxation agents” (priority 2000, published 2003)

Assays:
[1] = system: extirpated mouse lymph duct (efferent lymph duct of iliac lymph node); experiment: Test for inhibition of spontaneous contraction of lymph duct (perfused extirpated mouse lymph duct, video microscope); parameters: species or system DDY mice
Procedure: The evaluation method of relaxation or contraction response is conducted based on a value (relative spontaneous contraction suppression) obtained by dividing the number of spontaneous contractions per minute observed after drug administration until returning to even spontaneous contractions by the average number of spontaneous contractions per minute before drug administration. For example, supposing that it takes 3 minutes to return to even spontaneous contractions after drug administration and that the contractions occur 9 times during that period, the value after drug administration is 3 times/minute. Therefore, if the frequency before drug administration is 15 times/minute, the suppression effect is represented as 20%, which is calculated by dividing 3 by 15 and standardizing the quotient as a percent.
Pentbarbital sodium (50 mg/kg) was intraperitoneally administered to DDY mice (male, 5 to 6 weeks old) so as to be anesthetized and sacrificed, and an efferent lymph duct of an iliac lymph node (with a maximum inner diameter of 300 μm) was extirpated. The extirpated lymph duct was preserved in a chilled Krebs solution (120 mM NaCl, 5.9 mM KCl, 2.5 mM CaCl2, 1.2 mM MgSO4, 1.2 mM NaH2PO4, 5.5 mM glucose, 25.0 mM NaHCO3) at 4° C.
The inner diameter of the perfused extirpated mouse lymph duct specimen, as obtained above, was measured using a video microscope system (FIG. 1). An internal pressure of 3 to 4 cm H2O was supplied to the specimen to induce spontaneous contraction.
Effects of PTHrP(1-34) on spontaneous contraction of the lymph duct were examined and compared with a control, in the presence of NO synthesis inhibitor (L-NAME, 3×10^−5 M), L-arginine (10^−3 M) as a substrate of […], glibenclamide 10^−6 M as an ATP-sensitive K^+ channel inhibitor, and PTHrP(7-34) as a PTH receptor antagonist.

[2] = system: extirpated human medullary arteriole; experiment: Relaxation effects on an extirpated human medullary arteriole (perfused specimen); conditions: control 127 μm
Procedure: Resistance vessel extirpated from femoral cancellous bone and the inside of femoral bone marrow during an artificial joint replacement surgery of a human (malum coxae) was used as a sample of human medullary arteriole. The extirpated femoral concellous bone and femoral bone marrow were preserved in a chilled Krebs solution (at 4° C. or lower), and thereafter used in the following in vitro experiment.
A perfused specimen from this sample was prepared in the same manner as the perfused specimen of the extirpated mouse miniature lymph duct in Example 1.
An image of the diameter of the specimen was captured through an object lens, a taking lens, and a CCD camera in the same manner as Example 2.
With respect to the perfused specimen as prepared above, relaxation effect of PTHrP(1-34)(10^−8M) in the presence of vasoconstricting norepinephrine (NE, 10^−6 M) was examined.

[3] = system: extirpated rat medullary arteriole; experiment: Inner diameter changes of perfused medullary arteriole specimen of rat thigh bone; parameters: species or system Wistar rats
Procedure: Wistar rats (male, 5 to 6 weeks old) were anesthetized with pentbarbital ([…] of intraperitoneal administration) and sacrificed. All the skin, muscle, and ligament attached to the thigh bones were removed so as to expose and extirpate the thigh bones. The extirpated thigh bones were preserved in Krebs solution (at approximately 4° C.) for approximately 30 minutes. Strength was applied along the long axis direction of the thigh bone using mosquito forceps so as to crack the thigh bone along the long axis. Then, the cracked thigh bone was place into a petri dish (containing Krebs solution at approximately 4° C.) which was coated with SILIGUARD. Under a stereoscopic microscope, the thigh bone was removed using microsurgical forceps (commercially available forceps that was further sharpened by a grinder) to expose the bone marrow.
Krebs solution (at approximately 4° C.) was filled into a 1 ml syringe (having a 27G needle attached thereto) and the inside of the bone marrow was washed with the Krebs solution so as to remove myeloid cells adhering to blood vessels.
As a result, a blood vessel network was observed (FIG. 8), and arterioles indicated by black wedge-shaped arrowheads were extirpated under a stereoscopic microscope using micro cusps and microsurgical forceps.
The extirpated medullary arteriole was fixed in an apparatus for preparing a perfused specimen (FIG. 1, vessel chamber 9), and a hydrostatic pressure was supplied thereto so as to wash and remove blood from the arteriole lumen. The inner pressure of the specimen was kept at 40 mmHg during the experiment and the exposed side of the specimen was continuously perfused (12 ml/min) with Krebs solution which was kept at 37° C. and pH of 7.4.
An image of the diameter of the specimen was captured through a object lens, a taking lens, and a CCD camera.

Compound: COC(=O)[C@@H](N)CCCNC(=N)N[N+](=O)[O-] [L-NAME, N^G-nitro L-arginine methyl ester]
- effect on inhibition of spontaneous lymph duct contraction by PTHrP(1-34), typical response ([1]; L-NAME 3×10^−5 M, PTHrP(1-34) 3×10^−9 M, FIG. 3B): cancelled out
- effect on lymph duct relaxation by PTHrP(1-34), four measurements ([1]; in the presence of L-NAME (3×10^−5 M), FIG. 4): significantly cancelled out

Compound: N=C(N)NCCC[C@H](N)C(=O)O [L-arginine]
- effect of simultaneous treatment with L-NAME on the cancellation effect, typical response ([1]; L-arginine 10^−3 M with L-NAME 3×10^−5 M, PTHrP(1-34) 3×10^−9 M, FIG. 3C): suppressed the cancellation effect of L-NAME
- effect of simultaneous treatment with L-NAME on the cancellation effect, four measurements ([1]; L-arginine (10^−3 M) with L-NAME (3×10^−5 M), FIG. 4): significantly suppressed the cancellation effect of L-NAME

Compound: NC[C@H](O)c1ccc(O)c(O)c1 [NE, norepinephrine]
- inner diameter of perfused specimen in the presence of NE ([2]; NE 10^−6 M, internal pressure 55 mmHg, FIG. 11(b)): 33 μm

Compound: COc1ccc(Cl)cc1C(=O)NCCc1ccc(S(=O)(=O)NC(=O)NC2CCCCC2)cc1 [glibenclamide]
- effect on lymph duct relaxation caused by PTHrP(1-34), typical response ([1]; glibenclamide 10^−6 M, PTHrP(1-34) 3×10^−9 M, FIG. 5B): cancelled out
- effect on lymph duct relaxation caused by PTHrP(1-34), four measurements ([1]; glibenclamide (10^−6 M), FIG. 6): significantly cancelled out

Compound: PTHrP(1-34): peptide comprising a sequence of 1 to 34 amino acids relative to the amino acid sequences of the PTHrP
- dose dependence of dilation effect ([3]; 10^−10 to 10^−8 M, FIG. 10): dose dependent
- inner diameter at maximum dilation (relaxation) after administration ([3]; PTHrP(1-34) 10^−8 M, dilated from 66 μm, passive diameter 120 μm, internal pressure 40 mmHg, FIG. 9): 114 μm
- dose at which dilation response was induced ([3]; dose range 10^−10 to 10^−8 M, FIG. 10): 10^−9 M
- inner diameter of perfused specimen after addition of PTHrP(1-34) in the presence of NE ([2]; PTHrP(1-34) 10^−8 M with NE 10^−6 M, NE alone 33 μm, FIG. 11(c)): 121 μm
- frequency of spontaneous contraction after drug administration ([1]; 3×10^−10 of PTHrP(1-34), 15 times/minute before drug administration, FIG. 2A): 13 times/minute
- effect on spontaneous contractions of the lymph duct at increased concentration ([1]; PTHrP(1-34) 10^−9 M, 3×10^−9 M, in addition to dilation responses, FIG. 2A): stopped remarkably
- effect of increasing PTHrP(1-34) on lymph duct (relative spontaneous contraction frequency ratio) ([1]; control without L-NAME and L-arginine, four measurements, FIG. 4): relaxed the lymph duct
- tachyphylaxis on repeated dose response ([1]; same specimen washed for 1 hour, dose response re-examined, FIG. 2B): induced remarkable tachyphylaxis

Compound: PTHrP(7-34): peptide having a sequence comprising from 7 to 34 amino acids of PTHrP; PTH/PTHrP receptor antagonist
- effect on lymph duct relaxation by PTHrP(1-34), four individual examples ([1]; PTHrP(7-34) 10^−7 M, PTHrP(1-34) 10^−10 to 3×10^−9 M, FIG. 7): significantly cancelled out
